Measurements reported in patent US7115642B2, “Substituted diphenyl isoxazoles, pyrazoles and oxadiazoles useful for treating HCV infection” (priority 2003, dated 2006).

tested on: HCV replicon (5-2 Luc replicon-comprising cells); assay: HCV replicon assay (luciferase); type: cell-based, Hepatitis C virus; details: 5-2 Luc replicon cells, luciferase readout; read-out: Replicon IC50
Source text: In one embodiment, the inhibitory activity of the compounds can be confirmed in a replicon assay that assesses the ability of a test compound to block or inhibit HCV replication in replicon cells. One example of a suitable replicon assay is the liver cell-line Huh 7-based replicon assay described in Lohmann et al., 1999, Science 285:110–113. A specific example of this replicon assay which utilizes luciferase translation is provided in the Examples Section. In one embodiment of this assay, the amount of test compound that yields a 50% reduction in translation as compared to a control cell (IC50) may be determined.
The inhibitory activity of certain exemplary compounds of the invention was confirmed using an HCV replicon assay. The HCV replicon can include such features as the HCV 5′ untranslated region including the HCV IRES, the HCV 3′ untranslated region, selected HCV genes encoding HCV polypeptides, selectable markers, and a reporter gene such as luciferase, GFP, etc. In the assay, actively dividing 5-2 Luc replicon-comprising cells (obtained from Ralf Bartenschlager; see Lohmann et al., 1999, Science 285:110–113) were seeded at a density of between about 5,000 and 7,500 cells/well onto 96 well plates (about 90 μl of cells per well) and incubated at 37° C. and 5% CO2 for 24 hours. Then, the test compound (in a volume of about 10 μl) was added to the wells at various concentrations and the cells were incubated for an additional 24 hours before luciferase assay. Briefly, the Bright-Glo reagent was diluted 1:1 with PBS and 100 μl of diluted reagent was added to each well. After 5 min of incubation at room temperature, luciferin emission was quantified with a luminometer. In this assay, the amount of test compound that yielded a 50% reduction in luciferase activity (IC50) was determined.
In TABLE 1, a value of “+” indicates an IC50 of 10 μM or less in the specified assay; a value of “−” indicates an IC50 of greater than 10 μM in the specified assay.

SMILES | IC50 [µM]
O=C(Nc1cccc(-c2cc(-c3c(Cl)cccc3N3CCN(C(=O)c4ccno4)CC3)no2)c1)C(Cl)Cl [Compound 530] | < 10
O=C(Nc1cccc(-c2cc(-c3c(Cl)cccc3N3CCN(C(=O)c4cccs4)CC3)no2)c1)C(Cl)Cl [Compound 554] | < 10
O=C(Nc1cccc(-c2cc(-c3c(Cl)cccc3N3CCN(C(=O)Nc4ccccc4)CC3)no2)c1)C(Cl)Cl [Compound 534] | < 10
CC(C)(C)OC(=O)NCC1CCN(c2cccc(Cl)c2-c2cc(-c3cccc(NC(=O)C(Cl)Cl)c3)on2)CC1 [Compound 589] | < 10
O=C(NC1CCN(c2cccc(Cl)c2-c2cc(-c3cccc(NC(=O)C(Cl)Cl)c3)on2)CC1)c1ccco1 [Compound 543] | < 10
CC(=O)N1CCC(CCOc2cccc(Cl)c2-c2cc(-c3cccc(NC(=O)C(Cl)Cl)c3)on2)CC1 [Compound 645] | < 10
CN(C)S(=O)(=O)N1CCN(c2cccc(Cl)c2-c2cc(-c3cccc(NC(=O)C(Cl)Cl)c3)on2)CC1 [Compound 540] | < 10
O=C(Nc1cccc(-c2cc(-c3ccccc3N3CCOCC3)no2)c1)C(Cl)Cl [Compound 612] | < 10
O=C(Nc1cccc(-c2cc(-c3c(Cl)cccc3N3CCN(C(=O)c4cccnc4)CC3)no2)c1)C(Cl)Cl [Compound 553] | < 10
O=C(Nc1cccc(-c2cc(-c3c(Cl)cccc3N3CCN(c4cnccn4)CC3)no2)c1)C(Cl)Cl [Compound 515] | < 10
O=C(Nc1cccc(-c2cc(-c3c(Cl)cccc3N3CCN(C(=O)Cc4cccnc4)CC3)no2)c1)C(Cl)Cl [Compound 558] | < 10
O=C(Nc1cccc(-c2cc(-c3c(F)cccc3N3CCN(c4ccccn4)CC3)no2)c1)C(Cl)Cl [Compound 521] | < 10
O=C(Nc1cccc(-c2cc(-c3c(Cl)cccc3OP(=O)(O)O)no2)c1)C(Cl)Cl [Compound 603] | < 10
O=C(Nc1cccc(-c2cc(-c3c(Cl)cc(OCCN4CCCCC4)cc3Cl)no2)c1)C(Cl)Cl [Compound 125, 2,2-Dichloro-N-[3-[3-[2,6-dichloro-4-(N-piperidinylethylenoxy)phenyl]-5-isoxazolyl]-phenyl]Acetamide] | < 10
CCNC(=O)NC1CCN(c2cccc(Cl)c2-c2cc(-c3cccc(NC(=O)C(Cl)Cl)c3)on2)C1 (centres unmarked) [Compound 575] | < 10
N#Cc1cccc(C(=O)N2CCN(c3cccc(Cl)c3-c3cc(-c4cccc(NC(=O)C(Cl)Cl)c4)on3)CC2)c1 [Compound 663] | < 10
O=C(Nc1cccc(-c2cc(-c3c(Cl)cc(Cl)cc3OCCN3CCOCC3)no2)c1)C(Cl)Cl [Compound 143, 2,2-Dichloro-N-[3-[3-[2,4-dichloro-6-(N-morpholino-2-ethyleneoxy)phenyl]-5-isoxazolyl]-phenyl]Acetamide] | > 10
O=C(Nc1cccc(-c2cc(-c3c(Cl)cccc3N3CCN(CC(=O)N4CCOCC4)CC3)no2)c1)C(Cl)Cl [Compound 631] | < 10
O=C(Nc1cccc(-c2cc(-c3c(Cl)cccc3N3CCC(NS(=O)(=O)c4ccccc4)CC3)no2)c1)C(Cl)Cl [Compound 547] | < 10
COC(=O)C(NC(=O)c1cccc(Cl)c1-c1cc(-c2cccc(NC(=O)C(Cl)Cl)c2)on1)c1ccccc1 (centres unmarked) [Compound 693] | > 10
O=C(Nc1cccc(-c2cc(-c3c(Cl)cccc3N3CCN(C(=O)c4cc(C(F)(F)F)cc(C(F)(F)F)c4)CC3)no2)c1)C(Cl)Cl [Compound 658] | < 10
O=C(Nc1cccc(-c2cc(-c3c(Cl)cccc3OCc3cccnc3)no2)c1)C(Cl)Cl [Compound 605] | < 10
O=C(Nc1cccc(-c2cc(-c3c(Cl)cccc3OC3CCNCC3)no2)c1)C(Cl)Cl [Compound 569] | < 10
O=C(Nc1cccc(-c2cc(-c3c(Cl)cccc3N3CCC4(CC3)OCCO4)no2)c1)C(Cl)Cl [Compound 615] | < 10
O=C(Nc1cccc(-c2cc(-c3c(Cl)cccc3N3CCN(C(=O)c4ccncc4)CC3)no2)c1)C(Cl)Cl [Compound 552] | < 10
O=C(Nc1cccc(-c2cc(-c3c(Cl)cccc3N3CCN4CCCC4C3)no2)c1)C(Cl)Cl (centres unmarked) [Compound 651] | < 10

SMILES | IC50 [µM]
CC(C)C(=O)N1CCN(c2cccc(Cl)c2-c2cc(-c3cccc(NC(=O)C(Cl)Cl)c3)on2)CC1 [Compound 644] | < 10
CCCCNC(=O)Nc1cccc(Cl)c1-c1cc(-c2cccc(NC(=O)C(Cl)Cl)c2)on1 [Compound 669] | < 10
CC(C)(C)OC(=O)N1CCCC(Oc2cccc(Cl)c2-c2cc(-c3cccc(NC(=O)C(Cl)Cl)c3)on2)C1 (centres unmarked) [Compound 570] | < 10
CCNC(=O)NC1CCN(c2cccc(Cl)c2-c2cc(-c3cccc(NC(=O)C(Cl)Cl)c3)on2)CC1 [Compound 579] | < 10
O=C(Nc1cc(-c2cc(-c3c(Cl)cccc3Cl)no2)ccc1OCCN1CCOCC1)C(Cl)Cl [Compound 171, 2,2-Dichloro-N-[3-[3-(2,6-dichlorophenyl)-5-isoxazolyl]-6-(N-morpholino-2-ethyleneoxy)phenyl]Acetamide] | > 10
CCNc1cccc(Cl)c1-c1cc(-c2cccc(NC(=O)C(Cl)Cl)c2)on1 [Compound 507] | < 10
O=C(Nc1cc(-c2cc(-c3c(Cl)cccc3Cl)no2)ccc1N1CCOCC1)C(Cl)Cl [Compound 169] | > 10
O=C(Nc1cccc(-c2cc(-c3c(Cl)cccc3OCCN3CCOCC3)no2)c1)C(Cl)Cl [Compound 95, 2,2-Dichloro-N-[3-[3-[2-chloro-6-(N-morpholino-2-ethyleneoxy)phenyl]-5isoxazolyl]-phenyl]Acetamide] | < 10
O=C(Nc1cccc(-c2cc(-c3c(Cl)cccc3OC(=O)N3CCOCC3)no2)c1)C(Cl)Cl [Compound 602] | < 10
CCNC(=O)N1CCC(N(C)c2cccc(Cl)c2-c2cc(-c3cccc(NC(=O)C(Cl)Cl)c3)on2)CC1 [Compound 584] | < 10
Cc1cc(OCCN2CCOCC2)cc(C)c1-c1cc(-c2cccc(NC(=O)C(Cl)Cl)c2)on1 [Compound 23, 2,2-Dichloro-N-[3-[3-[2,6-dimethyl-4-(N-morpholino-2-ethyleneoxy)phenyl]-5-isoxazolyl]phenyl]Acetamide] | < 10
O=C(Nc1cccc(-c2cc(-c3c(Cl)cccc3OCCC3CCN(C(=O)c4ccccn4)CC3)no2)c1)C(Cl)Cl [Compound 646] | < 10
CN(C)C1CCN(c2cccc(Cl)c2-c2cc(-c3cccc(NC(=O)C(Cl)Cl)c3)on2)C1 (racemic) [Compound 132, (±)-2,2-Dichloro-N-[3-[3-[2-chloro-6-(3-dimethylamino-N-pyrrolidino)phenyl]-5-isoxazolyl]-phenyl]Acetamide] | < 10
O=C(Nc1cccc(-c2cc(-c3c(Cl)cccc3N3CCN(c4ncccn4)CC3)no2)c1)C(Cl)Cl [Compound 517] | < 10
O=C(Nc1cccc(-c2cc(-c3c(N4CCN(c5ccccn5)CC4)cccc3C(F)(F)F)no2)c1)C(Cl)Cl [Compound 520] | < 10
CN(C)C(=O)CN1CCN(c2cccc(Cl)c2-c2cc(-c3cccc(NC(=O)C(Cl)Cl)c3)on2)CC1 [Compound 628] | < 10
O=C(Nc1cccc(-c2cc(-c3c(Cl)cccc3-c3cccnc3)no2)c1)C(Cl)Cl [Compound 685] | < 10
CC(C)(C)OC(=O)COc1cccc(Cl)c1-c1cc(-c2cccc(NC(=O)C(Cl)Cl)c2)on1 [Compound 678] | > 10
CCNC(=O)N1CCC(Oc2cccc(Cl)c2-c2cc(-c3cccc(NC(=O)C(Cl)Cl)c3)on2)CC1 [Compound 578] | < 10
O=C(Nc1cccc(-c2cc(-c3c(Cl)cccc3N3CCN(C(=O)CCc4ccccc4)CC3)no2)c1)C(Cl)Cl [Compound 647] | < 10
O=C(Nc1cccc(-c2cc(-c3c(Cl)cccc3N3CCN(c4ccccc4)CC3)no2)c1)C(Cl)Cl [Compound 516] | < 10
O=C(Nc1cccc(-c2cc(-c3c(Cl)cccc3I)no2)c1)C(Cl)Cl [Compound 677] | < 10
CC(C)(C)OC(=O)c1cccc(Cl)c1-c1cc(-c2cccc(NC(=O)C(Cl)Cl)c2)on1 [Compound 686] | < 10
O=C(Nc1cccc(-c2cc(-c3c(Cl)cccc3N3CCN(CCc4ccccn4)CC3)no2)c1)C(Cl)Cl [Compound 653] | < 10
CN(C(=O)C(Cl)Cl)c1cccc(-c2cc(-c3c(Cl)cccc3N=[N+]=[N-])no2)c1 [Compound 563] | < 10

same assay, conditions: Hepatitis C virus; 5-2 Luc replicon cells, luciferase readout; read-out: Replicon IC50

SMILES | IC50 [µM]
COc1ccc(-c2cc(-c3c(Cl)cccc3Cl)no2)cc1NC(=O)C(Cl)Cl [Compound 173, 2,2-Dichloro-N-[3-[3-(2,6-dichlorophenyl)-5-isoxazolyl]-6-methoxyphenyl]Acetamide] | < 10
O=C(Nc1cccc(-c2cc(-c3c(Cl)cccc3-n3ccnc3)no2)c1)C(Cl)Cl [Compound 117, 2,2-Dichloro-N-[3-[3-[2-chloro-6-(N-imidazolyl)phenyl]-5-isoxazolyl]phenyl]Acetamide] | < 10
